Measurements taken from the supplement of paper PMC10307832.

Legend:
Test in all cases: relative viability (nuclei count vs DMSO), 5 days (fraction); higher = more cells survive
[1] = compound: CCN1C(=O)C2=CC(=C(N=C2N(C1=O)C3CC3)N)C(=O)N + CS(=O)(=O)CCNCc1ccc(-c2ccc3ncnc(Nc4ccc(OCc5cccc(F)c5)c(Cl)c4)c3c2)o1 [Lapatinib] (partner 2 µM)
In short: (§1)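 Values are medians from duplicate plates. Each reflects relative viability, defined as the nuclei count of treated wells over that of vehicle wells. Lung cancer cell lines in 1536-well plates were pin-tool dosed one day after seeding with one drug alone or with a fixed anchor-drug dose plus five library-drug doses (not always all listed) in √10 steps, then fixed, stained and imaged at 4× after 5 days.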

[2] = compound: CCN1C(=O)C2=CC(=C(N=C2N(C1=O)C3CC3)N)C(=O)N + Cc1nc(NC(=O)N2CCC[C@H]2C(N)=O)sc1-c1ccnc(C(C)(C)C(F)(F)F)c1 [Alpelisib] (partner 2 µM)
In short: as §1

[3] = compound: CCN1C(=O)C2=CC(=C(N=C2N(C1=O)C3CC3)N)C(=O)N + CC1(C)CCC(c2ccc(Cl)cc2)=C(CN2CCN(c3ccc(C(=O)NS(=O)(=O)c4ccc(N[C@H](CCN5CCOCC5)CSc5ccccc5)c(S(=O)(=O)C(F)(F)F)c4)cc3)CC2)C1 [Navitoclax] (partner 0.5 µM)
In short: as §1

[4] = compound: CCN1C(=O)C2=CC(=C(N=C2N(C1=O)C3CC3)N)C(=O)N + CC(C)C[C@H](NC(=O)[C@H](Cc1ccccc1)NC(=O)c1cnccn1)B(O)O [Bortezomib] (partner 0.002 µM)
In short: as §1

[5] = compound: CCN1C(=O)C2=CC(=C(N=C2N(C1=O)C3CC3)N)C(=O)N + C[C@]1(O)C[C@@H](c2nc(-c3ccc4ccc(-c5ccccc5)nc4c3)c3c(N)nccn32)C1 [Linsitinib] (partner 1 µM)
In short: as §1

[6] = compound: CCN1C(=O)C2=CC(=C(N=C2N(C1=O)C3CC3)N)C(=O)N + C[C@@H](Oc1cc(-c2cnn(C3CCNCC3)c2)cnc1N)c1c(Cl)ccc(F)c1Cl [Crizotinib] (partner 1 µM)
In short: as §1

[7] = compound: CCN1C(=O)C2=CC(=C(N=C2N(C1=O)C3CC3)N)C(=O)N + CS(=O)(=O)N1CCN(Cc2cc3nc(-c4cccc5[nH]ncc45)nc(N4CCOCC4)c3s2)CC1 [Pictilisib] (partner 1 µM)
In short: as §1

[8] = compound: CCN1C(=O)C2=CC(=C(N=C2N(C1=O)C3CC3)N)C(=O)N + COc1cc2c(Oc3ccc(NC(=O)C4(C(=O)Nc5ccc(F)cc5)CC4)cc3F)ccnc2cc1OCCCN1CCOCC1 [Foretinib] (partner 0.25 µM)
In short: as §1

[9] = compound: CCN1C(=O)C2=CC(=C(N=C2N(C1=O)C3CC3)N)C(=O)N + O=C(c1cc(Cc2n[nH]c(=O)c3ccccc23)ccc1F)N1CCN(C(=O)C2CC2)CC1 [Olaparib] (partner 8 µM)
In short: as §1

[10] = compound: CCN1C(=O)C2=CC(=C(N=C2N(C1=O)C3CC3)N)C(=O)N
In short: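 MetaXpress counted nuclei in 4× images of lung cancer cell lines that had been fixed, permeabilised and Hoechst-stained in one step. Before that, cells in 1536-well plates were kept overnight at 37 °C, pinned with five √10-spaced library-drug doses on vehicle-anchored plates, and cultured 5 days without medium change. Viability takes treated-well nuclei over vehicle-well nuclei and uses the median across plates. Plates were accepted only at control CV below 25% and at least one doubling.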

Row | Cell Line | relative viability ([1]; first compound 0.253 µM) | relative viability ([1]; first compound 0.8 µM) | relative viability ([1]; first compound 2.53 µM) | relative viability ([1]; first compound 8 µM) | relative viability ([2]; first compound 0.253 µM) | relative viability ([2]; first compound 0.8 µM) | relative viability ([2]; first compound 2.53 µM) | relative viability ([2]; first compound 8 µM) | relative viability ([3]; first compound 0.253 µM) | relative viability ([3]; first compound 0.8 µM) | relative viability ([3]; first compound 2.53 µM) | relative viability ([3]; first compound 8 µM) | relative viability ([4]; first compound 0.253 µM) | relative viability ([4]; first compound 0.8 µM) | relative viability ([4]; first compound 2.53 µM) | relative viability ([4]; first compound 8 µM) | relative viability ([5]; first compound 0.253 µM) | relative viability ([5]; first compound 0.8 µM) | relative viability ([5]; first compound 2.53 µM) | relative viability ([5]; first compound 8 µM) | relative viability ([6]; first compound 0.253 µM) | relative viability ([6]; first compound 0.8 µM) | relative viability ([6]; first compound 2.53 µM) | relative viability ([6]; first compound 8 µM) | relative viability ([7]; first compound 0.253 µM) | relative viability ([7]; first compound 0.8 µM) | relative viability ([7]; first compound 2.53 µM) | relative viability ([7]; first compound 8 µM) | relative viability ([8]; first compound 0.253 µM) | relative viability ([8]; first compound 0.8 µM) | relative viability ([8]; first compound 2.53 µM) | relative viability ([8]; first compound 8 µM) | relative viability ([9]; first compound 0.253 µM) | relative viability ([9]; first compound 0.8 µM) | relative viability ([9]; first compound 2.53 µM) | relative viability ([9]; first compound 8 µM) | relative viability ([10]; 0.253 µM) | relative viability ([10]; 0.8 µM) | relative viability ([10]; 2.53 µM) | relative viability ([10]; 8 µM)
1 | Calu-6 | 1.06 | 1.05 | 0.957 | 0.997 | 1.03 | 0.876 | 0.866 | 0.925 | 0.828 | 0.822 | 0.826 | 0.883 | 1 | 0.954 | 1.02 | 0.958 | 0.924 | 0.946 | 0.869 | 0.866 | 0.808 | 0.81 | 0.721 | 0.805 | 0.925 | 0.819 | 0.923 | 1 | 0.892 | 0.809 | 0.845 | 0.803 | 0.554 | 0.573 | 0.582 | 0.566 | 0.963 | 1.01 | 0.902 | 0.905
2 | EBC-1 | 0.186 | 0.204 | 0.206 | 0.211 | 0.84 | 0.77 | 0.78 | 0.834 | 0.441 | 0.43 | 0.451 | 0.378 | 0.496 | 0.5 | 0.489 | 0.61 | 0.851 | 0.938 | 0.808 | 0.886 | 0.163 | 0.184 | 0.208 | 0.218 | 0.35 | 0.352 | 0.335 | 0.494 | 0.105 | 0.114 | 0.104 | 0.119 | 0.7 | 0.695 | 0.618 | 0.777 | 0.932 | 1.02 | 0.979 | 1.03
